Read-outs that look alike come from different tables or passages of the source.
Assays:
[1] = system: MMH/GH5 cells; test: cellular survival of MMH/GH5, Trypan Blue exclusion; format: cell-based, mice; parameters: % cellular survival, MMHGH/5 1 + 24 h / % cellular survival, MMHGH/5 5 + 24 / % vitality of the cells, MMH/GH 1 + 24 h / % vitality of the cells, MMH/GH 5 + 24 h: unit of the concentration uncertain; conditions: for % vitality of the cells, MMH/GH 1 + 24 h / % cellular survival, MMHGH/5 1 + 24 h: 1 h treatment + 24 h normal medium; for % vitality of the cells, MMH/GH 5 + 24 h / % cellular survival, MMHGH/5 5 + 24: 5 h treatment + 24 h normal medium
Description: (§1) This different behaviour is explained by the greater sensitivity to the toxicant of the PHGH with respect to the MMH/GH5 as shown by analysis of the cellular vitality performed with the Trypan Blue method (FIG. 1, graph B). […] Therefore the greater resistance of the cells MMH/GH/5 to the toxicants constitutes another evident advantage as it permits the exclusion of false negatives in which the non-release of hGH, due to cellular death, is interpreted as non-toxicity of the compound. When the supernatant is collected after 5 hours of treatment followed by 24 hours of culture with normal medium (FIG. 1 graph C) the PHGHs respond, at the lowest concentrations of the two toxicants, with high levels of secretion of hGH and, at the highest concentrations, with low levels of secretion of hGH (lower cellular survival, graph D).
(§2) In table 3 the cellular survival percentage was determined with the Trypan Blue exclusion method. […]
(§3) For treatment, the two types of cells were treated with different concentrations of the compounds for 1 or 5 hours and then with normal medium for a further 24 hours. The effects of the treatment were assessed as described previously for the inorganic toxicants.

[2] = system: MMH/GH5 cells (Clone 5); parameters: hGH secreted, MMHGH/5 1 + 24 h / hGH secreted, MMHGH/5 5 + 24 / hGH secreted, MMHGH/5 1 h / hGH secreted, MMHGH/5 5 h: dose or concentration left out as unconfirmed
[3] = system: primary hepatocytes (PHGH); test: cellular survival of PHGH, Trypan Blue exclusion; format: cell-based, mice; parameters: % cellular survival, PHGH 1 + 24 h / % cellular survival, PHGH 5 + 24 / % vitality of the cells, PHGH 1 + 24 h / % vitality of the cells, PHGH 5 + 24 h: unit of the concentration uncertain; conditions: for % vitality of the cells, PHGH 1 + 24 h / % cellular survival, PHGH 1 + 24 h: 1 h treatment + 24 h normal medium; for % vitality of the cells, PHGH 5 + 24 h / % cellular survival, PHGH 5 + 24: 5 h treatment + 24 h normal medium
Description: as §1, §2, §3

[4] = system: single transgenic HPS70/hGH primary hepatocytes (PHGH); test: toxicity test, hGH secretion by primary transgenic hepatocytes (PHGH); format: cell-based, mice; parameters: hGH secreted, PHGH 1 h / hGH secreted, PHGH 5 h / hGH secreted, PHGH 1 + 24 h / hGH secreted, PHGH 5 + 24: unit of the concentration uncertain
Description: On the basis of the results illustrated, for the further analyses, clone no. […] The response to the toxic stress of the clone MMH/GH5 was then compared with the one obtained in single transgenic HPS70/hGH primary hepatocytes (PHGH). A representative sample of the cell line derived from said clone MMH/GH5 was deposited in accordance with and for the purposes of the Treaty of Budapest on the international recognition of deposit of micro-organisms for the purposes of the patents procedure with the AID “Centro di Biotecnologie Avanzate (CBA), Interlab Cell Line Collection (ICLC)” Servizio Biotecnologie, Largo R. Benzi, 10, 16132 Genova, Italy, on Jul. 30, 2002, where it was given identification number PD 02007.
as §2, §3

[5] = 5 (unit uncertain), Trypan Blue
[6] = 50 (unit uncertain), Trypan Blue (Table 4)
[7] = 100 (unit uncertain), Trypan Blue
[8] = 25 (unit uncertain), Trypan Blue
[9] = 50 (unit uncertain), Trypan Blue (Table 3)
[10] = 25, 1 h treatment + 24 h normal medium
[11] = 25, 5 h treatment + 24 h normal medium
[12] = 50, 1 h treatment + 24 h normal medium (Table 3)
[13] = 50, 5 h treatment + 24 h normal medium (Table 3)
[14] = 25 (unit uncertain), 1 h treatment
[15] = 25 (unit uncertain), 1 h treatment + 24 h normal medium
[16] = 25 (unit uncertain), 5 h treatment
[17] = 25 (unit uncertain), 5 h treatment + 24 h normal medium
[18] = 50 (unit uncertain), 1 h treatment (Table 3)
[19] = 50 (unit uncertain), 1 h treatment + 24 h normal medium (Table 3)
[20] = 50 (unit uncertain), 5 h treatment (Table 3)
[21] = 50 (unit uncertain), 5 h treatment + 24 h normal medium (Table 3)

Compound | % vitality of the cells, MMH/GH 1 + 24 h [1, 6] [%] | % vitality of the cells, MMH/GH 5 + 24 h [1, 6] [%] | % vitality of the cells, PHGH 1 + 24 h [3, 6] [%] | % vitality of the cells, PHGH 5 + 24 h [3, 6] [%] | % cellular survival, MMHGH/5 1 + 24 h [1, 8] [%] | % cellular survival, MMHGH/5 5 + 24 [1, 8] [%] | % cellular survival, MMHGH/5 1 + 24 h [1, 9] [%] | % cellular survival, MMHGH/5 5 + 24 [1, 9] [%] | hGH secreted, MMHGH/5 1 h ([2]; 25, 1 h treatment) [pg hGH/10^6 cells] | hGH secreted, MMHGH/5 1 + 24 h [2, 10] [pg hGH/10^6 cells] | hGH secreted, MMHGH/5 5 h ([2]; 25, 5 h treatment) [pg hGH/10^6 cells] | hGH secreted, MMHGH/5 5 + 24 [2, 11] [pg hGH/10^6 cells] | hGH secreted, MMHGH/5 1 h ([2]; 50, 1 h treatment (Table 3)) [pg hGH/10^6 cells] | hGH secreted, MMHGH/5 1 + 24 h [2, 12] [pg hGH/10^6 cells] | hGH secreted, MMHGH/5 5 h ([2]; 50, 5 h treatment (Table 3)) [pg hGH/10^6 cells] | hGH secreted, MMHGH/5 5 + 24 [2, 13] [pg hGH/10^6 cells] | % cellular survival, PHGH 1 + 24 h [3, 8] [%] | % cellular survival, PHGH 5 + 24 [3, 8] [%] | % cellular survival, PHGH 1 + 24 h [3, 9] [%] | % cellular survival, PHGH 5 + 24 [3, 9] [%] | also measured
O=[N+]([O-])c1ccc(Cl)c([N+](=O)[O-])c1 [CDNB, 1-Chloro-2,4-DiNitro-Benzene] | 70 | 20 | 5 | 5 |  |  |  |  |  |  |  |  |  |  |  |  |  |  |  |  | % vitality of the cells, MMH/GH 1 + 24 h [1, 5]: 80%; % vitality of the cells, MMH/GH 5 + 24 h [1, 5]: 60%; toxicity on MMH/GH5 cells compared with PHGHs ([1]; words, data in table 4): less toxic; secretion of the hGH from the MMH/GH5 cells ([2]; all the conditions tested): considerable secretion; % vitality of the cells, PHGH 1 + 24 h [3, 5]: 80%; % vitality of the cells, PHGH 5 + 24 h [3, 5]: 40%
Oc1c(Cl)c(Cl)c(Cl)c(Cl)c1Cl [PCP, PentaChloroPhenol] | 90 | 70 | 10 | 10 |  |  |  |  |  |  |  |  |  |  |  |  |  |  |  |  | % vitality of the cells, MMH/GH 1 + 24 h [1, 7]: 80%; % vitality of the cells, MMH/GH 5 + 24 h [1, 7]: 50%; induction of a response in MMH/GH5 ([2]; words, Table 4): requires a prolonged exposure time to induce a response; % vitality of the cells, PHGH 1 + 24 h [3, 7]: 0%; % vitality of the cells, PHGH 5 + 24 h [3, 7]: 0%; toxicity for the PHGHs ([3]; words, Table 4): toxic
CCCCC[C@H](O)/C=C/[C@H]1C=CC(=O)[C@@H]1CCCCCCC(=O)O [PGA1] |  |  |  |  | 90 | 90 | 90 | 90 | 10 | 0 | 27 | 2 | 94 | 116 | 47 | 9 | 95 | 90 | 90 | 70 | hGH secreted, PHGH 1 h [4, 14]: 9 pg hGH/10^6 cells; hGH secreted, PHGH 1 + 24 h [4, 15]: 13 pg hGH/10^6 cells; hGH secreted, PHGH 5 h [4, 16]: 16 pg hGH/10^6 cells; hGH secreted, PHGH 5 + 24 [4, 17]: 69 pg hGH/10^6 cells; hGH secreted, PHGH 1 h [4, 18]: 7 pg hGH/10^6 cells; hGH secreted, PHGH 1 + 24 h [4, 19]: 4 pg hGH/10^6 cells; hGH secreted, PHGH 5 h [4, 20]: 17 pg hGH/10^6 cells; hGH secreted, PHGH 5 + 24 [4, 21]: 522 pg hGH/10^6 cells
CCCCC[C@H](O)/C=C/[C@H]1C=CC(=O)[C@@H]1C/C=C\CCCC(=O)O [PGA2] |  |  |  |  | 90 | 90 | 90 | 90 | 1 | 2 | 53 | 0 | 8 | 92 | 107 | 0 | 90 | 90 | 90 | 90 | hGH secreted, PHGH 1 h [4, 14]: 1 pg hGH/10^6 cells; hGH secreted, PHGH 1 + 24 h [4, 15]: 0 pg hGH/10^6 cells; hGH secreted, PHGH 5 h [4, 16]: 56 pg hGH/10^6 cells; hGH secreted, PHGH 5 + 24 [4, 17]: 10 pg hGH/10^6 cells; hGH secreted, PHGH 1 h [4, 18]: 27 pg hGH/10^6 cells; hGH secreted, PHGH 1 + 24 h [4, 19]: 26 pg hGH/10^6 cells; hGH secreted, PHGH 5 h [4, 20]: 95 pg hGH/10^6 cells; hGH secreted, PHGH 5 + 24 [4, 21]: 37 pg hGH/10^6 cells
